Laboratory results: ChEMBL document CHEMBL5465560, “Selectivity Literature for EUbOPEN Chemogenomic Library” (2024)

Columns and labels:
[1] = target: Tyrosine-protein kinase Fer (Homo sapiens) (UniProt P16591); test: Selectivity interaction (ActivX KiNativ screen (kinase selectivity in THP-1 cell lysates)) EUB0000639a FER; type: subcellular; settings: lysate, at 0.04 µM
[2] = target: T1, Interleukin-1 receptor-associated kinase 3 (Homo sapiens) (UniProt Q9Y616); test: Selectivity interaction (KinomeScan (DiscoverX)) EUB0000695a IRAK3; settings: at 100 nM
T1 sequence (whole entry): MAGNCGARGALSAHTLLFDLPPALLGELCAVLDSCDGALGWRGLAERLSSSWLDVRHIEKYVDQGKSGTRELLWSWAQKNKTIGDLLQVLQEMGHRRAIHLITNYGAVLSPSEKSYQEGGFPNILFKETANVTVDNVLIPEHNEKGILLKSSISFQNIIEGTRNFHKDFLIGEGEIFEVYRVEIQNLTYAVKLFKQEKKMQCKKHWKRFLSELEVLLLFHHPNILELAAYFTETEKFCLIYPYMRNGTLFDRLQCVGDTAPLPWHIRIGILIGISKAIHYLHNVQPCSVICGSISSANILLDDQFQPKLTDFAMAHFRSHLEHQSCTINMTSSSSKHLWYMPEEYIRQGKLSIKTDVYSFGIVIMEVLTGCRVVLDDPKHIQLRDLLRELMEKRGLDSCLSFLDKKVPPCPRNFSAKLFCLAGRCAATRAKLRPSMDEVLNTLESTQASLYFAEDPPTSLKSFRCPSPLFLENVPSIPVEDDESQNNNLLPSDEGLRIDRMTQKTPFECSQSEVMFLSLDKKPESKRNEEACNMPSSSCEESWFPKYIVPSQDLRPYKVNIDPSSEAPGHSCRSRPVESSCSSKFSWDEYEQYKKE

[3] = target: T2, Serine/threonine-protein kinase D1 (Homo sapiens) (UniProt Q15139); test: Selectivity interaction (KinomeScan (DiscoverX)) EUB0001079a PRKD1; settings: at 1 µM
T2 sequence (whole entry): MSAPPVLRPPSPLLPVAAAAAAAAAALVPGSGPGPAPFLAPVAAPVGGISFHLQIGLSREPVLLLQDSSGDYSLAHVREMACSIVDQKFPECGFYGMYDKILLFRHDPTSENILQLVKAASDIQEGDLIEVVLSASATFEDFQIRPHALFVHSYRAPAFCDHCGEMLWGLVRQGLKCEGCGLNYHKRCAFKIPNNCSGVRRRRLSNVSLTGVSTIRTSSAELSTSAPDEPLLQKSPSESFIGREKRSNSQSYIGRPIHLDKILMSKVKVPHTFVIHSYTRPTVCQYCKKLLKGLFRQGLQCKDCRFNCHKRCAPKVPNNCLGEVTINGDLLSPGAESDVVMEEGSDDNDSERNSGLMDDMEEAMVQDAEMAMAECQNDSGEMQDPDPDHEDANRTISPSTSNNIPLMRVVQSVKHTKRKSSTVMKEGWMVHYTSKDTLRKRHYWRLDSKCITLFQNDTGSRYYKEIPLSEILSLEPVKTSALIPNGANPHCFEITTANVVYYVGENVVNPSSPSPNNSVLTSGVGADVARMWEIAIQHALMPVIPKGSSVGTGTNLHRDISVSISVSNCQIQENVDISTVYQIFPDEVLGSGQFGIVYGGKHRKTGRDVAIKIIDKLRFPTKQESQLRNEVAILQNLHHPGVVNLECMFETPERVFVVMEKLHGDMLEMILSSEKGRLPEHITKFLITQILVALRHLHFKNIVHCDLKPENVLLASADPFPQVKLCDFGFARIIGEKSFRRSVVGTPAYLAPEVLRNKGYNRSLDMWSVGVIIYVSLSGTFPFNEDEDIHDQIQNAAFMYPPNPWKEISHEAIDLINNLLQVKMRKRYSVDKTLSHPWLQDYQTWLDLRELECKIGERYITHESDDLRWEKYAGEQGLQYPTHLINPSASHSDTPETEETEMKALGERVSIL

[4] = target: Interleukin-1 receptor-associated kinase 1 (Homo sapiens) (UniProt P51617); test: Selectivity interaction (KinomeScan (DiscoverX)) EUB0000045b IRAK1
Interleukin-1 receptor-associated kinase 1 (Homo sapiens), sequence (P51617 whole entry, looked up): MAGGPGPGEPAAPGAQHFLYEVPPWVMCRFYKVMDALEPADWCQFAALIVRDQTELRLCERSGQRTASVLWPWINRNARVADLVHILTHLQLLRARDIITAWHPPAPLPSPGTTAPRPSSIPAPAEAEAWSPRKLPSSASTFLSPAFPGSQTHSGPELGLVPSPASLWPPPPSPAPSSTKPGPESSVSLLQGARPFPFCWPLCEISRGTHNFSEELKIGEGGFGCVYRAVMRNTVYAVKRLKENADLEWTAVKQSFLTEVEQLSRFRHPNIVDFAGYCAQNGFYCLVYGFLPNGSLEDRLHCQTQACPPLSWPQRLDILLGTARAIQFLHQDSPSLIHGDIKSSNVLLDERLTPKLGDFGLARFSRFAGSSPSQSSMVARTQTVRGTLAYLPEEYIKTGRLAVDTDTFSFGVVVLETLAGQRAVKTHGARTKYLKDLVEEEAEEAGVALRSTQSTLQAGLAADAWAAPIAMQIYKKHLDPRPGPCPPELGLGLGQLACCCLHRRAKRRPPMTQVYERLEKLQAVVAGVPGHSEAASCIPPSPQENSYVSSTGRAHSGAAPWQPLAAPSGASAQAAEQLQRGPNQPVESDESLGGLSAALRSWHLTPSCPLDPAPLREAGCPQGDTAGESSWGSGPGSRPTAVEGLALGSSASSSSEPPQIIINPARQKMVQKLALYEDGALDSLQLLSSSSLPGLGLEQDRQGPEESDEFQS

[5] = target: T3, Serine/threonine-protein kinase DCLK3 (Homo sapiens) (UniProt Q9C098); test: Selectivity interaction (KinomeScan (DiscoverX)) EUB0000045b DCLK3
T3 sequence (whole entry): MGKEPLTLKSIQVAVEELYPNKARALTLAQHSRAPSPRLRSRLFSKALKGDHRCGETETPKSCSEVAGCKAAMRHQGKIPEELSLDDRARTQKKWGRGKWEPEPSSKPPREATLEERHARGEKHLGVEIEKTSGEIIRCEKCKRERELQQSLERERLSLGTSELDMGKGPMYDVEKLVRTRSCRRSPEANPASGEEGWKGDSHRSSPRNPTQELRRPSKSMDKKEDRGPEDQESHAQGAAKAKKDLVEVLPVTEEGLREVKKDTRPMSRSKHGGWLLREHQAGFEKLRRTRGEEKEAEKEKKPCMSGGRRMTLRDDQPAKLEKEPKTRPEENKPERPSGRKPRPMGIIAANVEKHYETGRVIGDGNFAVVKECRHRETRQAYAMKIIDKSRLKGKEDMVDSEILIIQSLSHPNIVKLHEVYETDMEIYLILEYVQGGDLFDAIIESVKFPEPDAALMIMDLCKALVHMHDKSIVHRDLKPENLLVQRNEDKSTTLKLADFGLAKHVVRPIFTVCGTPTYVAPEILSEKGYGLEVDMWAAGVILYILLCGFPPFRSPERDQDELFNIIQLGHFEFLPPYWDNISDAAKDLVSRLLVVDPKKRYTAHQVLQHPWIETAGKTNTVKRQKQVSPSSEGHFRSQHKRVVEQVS

[6] = target: T4, Serine/threonine-protein kinase ULK3 (Homo sapiens) (UniProt Q6PHR2); test: Selectivity interaction (KinomeScan (DiscoverX)) EUB0001619a ULK3; settings: at 1 µM
T4 sequence (whole entry): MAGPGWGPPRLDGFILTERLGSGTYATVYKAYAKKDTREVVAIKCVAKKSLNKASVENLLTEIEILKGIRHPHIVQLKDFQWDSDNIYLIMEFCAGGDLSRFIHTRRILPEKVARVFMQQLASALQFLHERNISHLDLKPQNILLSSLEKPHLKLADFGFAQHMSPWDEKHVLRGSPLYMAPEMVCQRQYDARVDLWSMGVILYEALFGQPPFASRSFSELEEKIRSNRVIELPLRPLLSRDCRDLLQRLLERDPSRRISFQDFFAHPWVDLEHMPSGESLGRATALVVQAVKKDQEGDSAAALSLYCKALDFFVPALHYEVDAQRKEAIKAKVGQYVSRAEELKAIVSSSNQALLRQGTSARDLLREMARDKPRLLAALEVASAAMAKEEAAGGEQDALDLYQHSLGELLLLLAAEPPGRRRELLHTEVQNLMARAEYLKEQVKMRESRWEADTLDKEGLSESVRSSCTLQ

[7] = target: Glycogen synthase kinase-3 beta (Homo sapiens, UniProt P49841); test: Selectivity interaction (KinomeScan (DiscoverX)) EUB0000607a GSK3B; settings: at 10 µM
Glycogen synthase kinase-3 beta, sequence (P49841 whole entry, looked up): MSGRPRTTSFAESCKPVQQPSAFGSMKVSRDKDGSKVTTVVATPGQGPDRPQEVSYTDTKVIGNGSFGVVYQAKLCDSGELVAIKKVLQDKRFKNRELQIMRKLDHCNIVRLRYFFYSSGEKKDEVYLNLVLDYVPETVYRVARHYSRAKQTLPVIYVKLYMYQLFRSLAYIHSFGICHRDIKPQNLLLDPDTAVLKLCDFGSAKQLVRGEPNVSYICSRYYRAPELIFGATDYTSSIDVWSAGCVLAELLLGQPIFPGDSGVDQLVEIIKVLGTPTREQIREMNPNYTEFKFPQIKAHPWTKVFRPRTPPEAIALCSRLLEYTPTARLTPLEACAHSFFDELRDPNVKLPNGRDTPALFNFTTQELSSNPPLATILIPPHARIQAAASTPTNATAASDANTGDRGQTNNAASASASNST

Tyrosine-protein kinase Fer (Homo sapiens), sequence (P16591 whole entry, looked up): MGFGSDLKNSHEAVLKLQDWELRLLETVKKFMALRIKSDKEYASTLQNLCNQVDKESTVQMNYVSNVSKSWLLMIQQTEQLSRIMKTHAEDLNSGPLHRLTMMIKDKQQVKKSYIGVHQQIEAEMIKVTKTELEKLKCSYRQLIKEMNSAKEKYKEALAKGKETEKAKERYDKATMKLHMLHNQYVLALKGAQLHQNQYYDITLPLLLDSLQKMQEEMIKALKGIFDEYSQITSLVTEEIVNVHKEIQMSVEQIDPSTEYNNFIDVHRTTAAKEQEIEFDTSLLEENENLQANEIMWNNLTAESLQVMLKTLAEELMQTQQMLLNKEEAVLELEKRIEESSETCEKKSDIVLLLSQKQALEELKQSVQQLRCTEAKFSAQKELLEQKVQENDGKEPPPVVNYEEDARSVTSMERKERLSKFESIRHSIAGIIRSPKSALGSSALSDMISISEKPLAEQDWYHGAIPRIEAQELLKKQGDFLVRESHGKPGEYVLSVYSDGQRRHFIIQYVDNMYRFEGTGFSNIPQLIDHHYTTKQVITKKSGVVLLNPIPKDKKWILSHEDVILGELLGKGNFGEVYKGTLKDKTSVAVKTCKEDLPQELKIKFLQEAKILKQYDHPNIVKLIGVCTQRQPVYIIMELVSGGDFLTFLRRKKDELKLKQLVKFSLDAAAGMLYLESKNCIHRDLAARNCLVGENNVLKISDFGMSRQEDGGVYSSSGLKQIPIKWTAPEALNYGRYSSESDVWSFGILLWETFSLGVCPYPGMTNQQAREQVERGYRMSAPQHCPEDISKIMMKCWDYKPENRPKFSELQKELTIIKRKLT

## CC[C@@H]1[C@H](F)C(=O)N[C@@H]1COc1nccc2cc(C(N)=O)c(OC)cc12 [ZIMLOVISERTIB]
[1]
  % of inhibition: -11.5%

## Cc1cc(F)c(C(=O)Nc2cccc(-c3nncn3C(C)C)n2)cc1-n1cnc(C2CC2)c1
[2]
  % of control: 100%

## Nc1cnc(N2CCc3cc(S(=O)(=O)Nc4c(F)cc(Cl)cc4F)cc(N4CCCC4=O)c32)nc1 [TP-020n]
[3]
  % of control: 83%

## C=CC(=O)Nc1cc(-n2c(=O)ccc3cnc4ccc(-c5ccc(NS(C)(=O)=O)cc5)cc4c32)ccc1C
[4]; at 1 µM
  % of control: 72%
[4]; at 10 µM
  % of control: 60%
[5]; at 1 µM
  % of control: 94%
[5]; at 10 µM
  % of control: 78%

## N#Cc1cccc(-c2c[nH]c3ncnc(N4CCOCC4)c23)c1
[6]
  % of control: 25%

## CNC(=O)Nc1ccc(-c2nc(N3CC4CCC(C3)O4)c3cnn(C4CCC5(CC4)OCCO5)c3n2)cc1
[7]
  % of control: 69%
